Measured values from publication PMC8878463, “Biological Activity and Stability of Aeruginosamides from Cyanobacteria” (Marine Drugs, 2022).
Values belong to the compound of their own block, whether it stands above or below them.

Columns and labels:
[1] = target: CYP2D6 (Homo sapiens, UniProt P10635); test: Vivid CYP450 screening kit, CYP2D6 Blue
Protocol: (§2) The following commercially available Vivid® CYP450 Screening Kits were performed according to the instruction supplied by the manufacturer (Thermo Fisher Scientific, Waltham, MA, USA): Vivid® CYP2C9 Blue (cat. no. P2861), Vivid® CYP2D6 Blue (cat. no. P2972) and Vivid® CYP3A4 Blue (cat. no. P2857). […] After adjustment to room temperature, the Vivid substrate was dissolved in anhydrous acetonitrile (10 µM), and the fluorescence standard was dissolved in DMSO (100 µM). The test compounds and inhibitors were diluted with the Vivid® CYP450 reaction buffer. […] In the subsequent steps, 5 µL solutions of test compounds, inhibitors and solvent were added to the wells. Then, 5 µL of Master Pre-Mix (mixture of Reagent, Regeneration System and the Reaction Buffer) was dispensed to each well. After 10 min incubation at room temperature, the reaction was started by the addition of 5 µL of a mixture composed of Vivid® Substrate and NADP^+. Tests were performed in endpoint mode using 384-well plates. […] The test was performed with three replicates at each concentration.

[2] = target: T1, CYP3A4 (Homo sapiens, UniProt P08684); test: Vivid CYP450 screening kit, CYP3A4 Blue; format: biochemical; details: for effect on CYP3A4 activity: up to 60 µM
T1 construct: purchased Thermo Fisher Scientific P2857; host or cells: baculovirus expression system (insect cell microsomes)
Protocol: The following commercially available Vivid® CYP450 Screening Kits were performed according to the instruction supplied by the manufacturer (Thermo Fisher Scientific, Waltham, MA, USA): Vivid® CYP2C9 Blue (cat. no. P2861), Vivid® CYP2D6 Blue (cat. no. P2972) and Vivid® CYP3A4 Blue (cat. no. P2857). The CYP450 BACULOSOMES Plus Reagent (with the recombinant human cytochrome P450 and human cytochrome 450 reductases), Vivid Regeneration System (333 mM glucose-6-phosphate and 30 U mL^−1 glucose-6-phosphate dehydrogenase in 100 mM K3PO4, pH 8.0), and Vivid NADP^+ (10 mM NADP^+ in 100 mM K3PO4, pH 8.0) were thawed at room temperature and kept on ice until use. After adjustment to room temperature, the Vivid substrate was dissolved in anhydrous acetonitrile (10 µM), and the fluorescence standard was dissolved in DMSO (100 µM). The test compounds and inhibitors were diluted with the Vivid® CYP450 reaction buffer. […] In the subsequent steps, 5 µL solutions of test compounds, inhibitors and solvent were added to the wells. Then, 5 µL of Master Pre-Mix (mixture of Reagent, Regeneration System and the Reaction Buffer) was dispensed to each well. After 10 min incubation at room temperature, the reaction was started by the addition of 5 µL of a mixture composed of Vivid® Substrate and NADP^+. Tests were performed in endpoint mode using 384-well plates. Excitation wavelength was 415 nm and emission was measured at 460 nm, at the start of the test and after 60 min. The test was performed with three replicates at each concentration.

[3] = target: CYP2C9 (Homo sapiens, UniProt P11712); test: Vivid CYP450 screening kit, CYP2C9 Blue; details: for reduction of CYP2C9 activity: 60 µM, 60 min incubation
Protocol: as §2

[4] = test system: human breast adenocarcinoma cell line T47D; test: MTT cytotoxicity assay; format: cell-based; details: 40 µM, 24 h
Protocol: MTT (3-(4,5-dimethylthiazol-2-yl)-2,5-diphenyltetrazolium-bromide) assay was performed according to Felczykowska et al.. Briefly, cytotoxicity assessment was conducted against human breast adenocarcinoma cell line T47D obtained from the European Collection of Authenticated Cell Cultures (ECACC) through Merck KGaA (Darmstadt, Germany). Cells were cultured in 96-well plates using RPMI1640 medium (Carl Roth GmbH, Karlsruhe, Germany) supplemented with a fetal bovine serum (10% v/v; Sigma-Aldrich by Merck KGaA, Darmstadt, Germany) and penicillin-streptomycin solution (1% v/v, stock solution 50 u and 0.05 mg mL^−1, respectively; Merck KGaA, Darmstadt, Germany) at 1 × 10^4 cells per well and incubated for 24 h. After the addition of the tested compounds (40, 80, 160 and 320 µM) dissolved in 1% DMSO, samples were incubated for another 24 h. Then, MTT reagent was added (25 µL at 4 mg mL^−1 in PBS; Merck KGaA; Darmstadt, Germany) and the samples were incubated for 4 h. Lastly, formazan crystals were dissolved in 100% DMSO and absorbance was measured using a microplate reader (Spectramax i3, Molecular Devices, LLC San Jose, CA, USA). Cell viability was calculated as the ratio of the mean absorbance value measured in two independent assays, for the three replicates containing the samples, to the mean absorbance of the three replicates of the corresponding solvent control and expressed as a percentage.

[5] = test system: Huh7 cells; test: CellTiter-Glo cell viability assay; format: cell-based, human; details: 24 h; for effect on Huh7 cell viability: 10 nM to 100 µM; for mean luciferase expression (relative luminescence), cell viability: normalized to untreated cells
Protocol: (§1) To determine cell viability and ROS level, Huh7 cells were seeded at 10,000 cells per well in white 96-well plates. After overnight incubation, the medium was removed and replaced with 100 μL of RPMI1640 supplemented with increasing concentrations of AEGs ranging from 10 nM to 100 μM (cell viability) or ranging from 1 µM to 100 μM (ROS), with three replicates at each concentration. After incubation for 24 h, cells viability was examined using a Cell Titer-Glo Luminescent Cell Viability Assay (Promega, Madison, WI, USA) and ROS was measured using a ROS-Glo H2O2 Assay (Promega, Madison, WI, USA).

[6] = test system: ROS (reactive oxygen species) levels in Huh7 cells; test: ROS-Glo H2O2 assay; format: cell-based, human; details: 1 µM to 100 µM, 24 h, concentration-dependent
Protocol: as §1

[7] = In vitro S9 stability assay (LC-MS/MS); format: in vitro ADME, human; details: for change of concentration in active S9 fraction / change of concentration in heat-denatured S9 fraction: up to 60 min; for change of concentration in heat-denatured S9 fraction: heat-denatured (deactivated) S9 fraction
Protocol: Human S9 liver fraction (catalogue no. HMS9PL, lot no. PL045-A) (protein content 20 mg mL^−1), containing a mixture of microsomal and cytosol enzymes, was used (Thermo Fisher Scientific, Waltham, MA USA) together with the following activating cofactors: NADPH (Alfa Aesar, Wart Hill, MA, USA), UDPGA (Merck KGaA; Darmstadt, Germany) and GSH (Merck, Darmstadt Germany). All cofactors (20 mM) and the analysed AEGs (3 µM) were prepared in 1% DMSO, the reaction was performed in a buffer (200 mM Tris (Merck KGaA, Darmstadt, Germany), 2 mM MgCl2 and 1M NaOH (Avantor Performance Materials Poland S.A., Gliwice, Poland); pH 7.4) 7-etoxycoumarine (7-EC; 3 µM in 20% DMSO) (Merck KGaA, Darmstadt, Germany) was used as a positive control. Tubes with 236 µL of buffer and 24 µL of S9 fraction were prepared in duplicates. Half of the samples was kept on ice, while the other half was deactivated by heating at 80 °C for 10 min and then cooled to room temperature. Cofactors were mixed (1:1:1) and 120 µL of the mixture, together with 20 µL of 7-EC were added to all samples. The aliquots (25 µL) of the samples were withdrawn at 0, 15, 30, 45, and 60 min, and 50 µL of an ice-cold ACN:MeOH (50:50) was added to stop the reaction. The samples were centrifuged (10,000× g, 4 °C, 10 min) and the supernatants were analysed by LC-MS/MS. The test was repeated twice. The elimination half-life was calculated as in Wen and Walle.
LC-MS/MS analyses were performed using an Agilent 1200 (Agilent Technologies, Waldboronn, Germany) chromatographic system coupled with a hybrid triple quadrupole/linear ion trap mass spectrometer (QTRAP5500, Applied Biosystems, Sciex, Concorde, ON, Canada) as a detector. AEGs were separated in a Zorbax Eclipse XDB-C18 column (4.61 mm × 150 mm; 5 µm) (Agilent Technologies, Santa Clara, CA, USA). The composition of the mobile phase was the same as in preparative chromatography. For analysis of the collected chromatographic fractions, the gradient changed from 15% B to 99% B over 20 min (flow rate 0.6 mL min^−1). The Turbo IonSource operated in positive ionisation mode at capillary voltage of 5.5 kV and source temperature of 550 °C. Cone gas pressure and desolvation gas pressure were 60 psi, declustering potential was 80 V, and collision energy was 60 ± 20 eV. Q3-information-dependent analysis (IDA) and enhanced product ion (EPI) modes were used. The IDA threshold was set at 500,000 cps, and the m/z range was 400–1000. The scan rate was 2000 amu s^−1, and the linear ion trap fill time 50 ms. For analysis of AEGs and 7-EC, the chromatographic gradient changed from 15% B to 25% B in 5 min, then to 99% B in the next 5 min (0.6 mL min^−1). MS operated in multiple reaction monitoring mode at collision energy CE 50 V and with the following transitions: 191 → 163, 119, 107 (q), 91 (for 7-EC); 561 → 222, 186, 86 (q) (for AEG A); 626 → 296, 136 (q), 70 (for AEG 625) and 658 → 296, 199 (q), 120 (for AEG 657). To determine the changes in AEGs concentrations, the peak areas of the most intensive ions (q) were measured.

[8] = test system: MIR92b-3p in Huh7-pmirGLO-92b cells; test: Dual-luciferase reporter assay for inhibitors of MIR92b-3p function; format: cell-based, human; details: 100 µM, 24 h
Protocol: In this study, the reporter assays for small-molecule inhibitors of the MIR92b-3p function, previously designed to screen Nostoc peptides, were used. The screen employs a Huh7 human hepatoma cell line (Cell Lines Service GmbH, CLS; Eppelheim, Germany) stably transfected with a pmirGLO vector containing dual-luciferase reporters. Briefly, for the chemical screening of AEGs, Huh7-pmirGLO-MIR92b-3p cells were seeded at 10,000 cells per well in white, 96-well plates (Thermo Fisher Scientific, Waltham, MA, USA). After overnight incubation, the medium was removed and replaced with 100 μL of RPMI1640 (Merck, KGaA, Darmstadt, Germany), supplemented with increasing concentrations of AEGs, ranging from 10 nM to 100 μM, with three replicates at each concentration. Cells were incubated for 24 h and then analysed with a dual-luciferase Reporter Assay Kit (Promega, Madison, WI, USA). Relative luciferase activity was calculated using the ratio of firefly (F) and Renilla (R) luciferase activity (F/R).

[9] = test system: K562 human leukaemia cells; set-up: method as in PMID 34237867; details: previous study; read-out: IC50 cytotoxic activity, K562; cited from earlier work
[10] = test system: A2780 human ovarian tumour cells; set-up: method as in PMID 34237867; details: previous study; read-out: IC50 cytotoxic activity, A2780; cited from earlier work
[11] = human, recombinant CYP2D6 (CYP450 BACULOSOMES Plus Reagent), probe Vivid CYP2D6 Blue substrate
[12] = active S9 fraction, 60 min, 3 µM

Chain of CYP2C9 (P11712 whole entry): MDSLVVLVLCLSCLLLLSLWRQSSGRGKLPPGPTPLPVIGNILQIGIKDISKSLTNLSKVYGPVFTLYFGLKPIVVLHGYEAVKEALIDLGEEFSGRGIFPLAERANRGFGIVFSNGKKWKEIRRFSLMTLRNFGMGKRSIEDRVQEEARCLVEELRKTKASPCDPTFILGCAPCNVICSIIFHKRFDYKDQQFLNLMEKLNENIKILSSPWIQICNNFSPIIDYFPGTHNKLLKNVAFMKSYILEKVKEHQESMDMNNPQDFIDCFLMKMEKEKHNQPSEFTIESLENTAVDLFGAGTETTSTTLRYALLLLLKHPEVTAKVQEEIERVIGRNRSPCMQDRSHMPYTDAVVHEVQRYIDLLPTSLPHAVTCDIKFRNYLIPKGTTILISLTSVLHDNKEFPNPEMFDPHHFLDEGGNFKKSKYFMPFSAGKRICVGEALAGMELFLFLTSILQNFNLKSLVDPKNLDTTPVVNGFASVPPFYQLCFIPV
T1 sequence (P08684 2-503 limits assumed): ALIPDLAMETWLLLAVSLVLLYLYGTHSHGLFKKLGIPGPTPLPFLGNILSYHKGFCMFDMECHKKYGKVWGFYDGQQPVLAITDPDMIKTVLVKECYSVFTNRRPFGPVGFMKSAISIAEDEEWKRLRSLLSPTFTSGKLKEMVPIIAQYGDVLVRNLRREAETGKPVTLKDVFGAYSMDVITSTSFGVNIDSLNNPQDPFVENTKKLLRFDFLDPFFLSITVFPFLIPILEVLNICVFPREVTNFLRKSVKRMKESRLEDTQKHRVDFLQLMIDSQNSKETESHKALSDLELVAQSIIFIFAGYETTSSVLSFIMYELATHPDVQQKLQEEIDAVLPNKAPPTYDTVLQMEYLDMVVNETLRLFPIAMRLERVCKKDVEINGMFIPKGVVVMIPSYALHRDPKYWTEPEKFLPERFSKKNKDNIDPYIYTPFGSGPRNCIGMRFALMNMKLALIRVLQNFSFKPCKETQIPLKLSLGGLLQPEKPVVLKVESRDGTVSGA
Chain of CYP2D6 (P10635 whole entry): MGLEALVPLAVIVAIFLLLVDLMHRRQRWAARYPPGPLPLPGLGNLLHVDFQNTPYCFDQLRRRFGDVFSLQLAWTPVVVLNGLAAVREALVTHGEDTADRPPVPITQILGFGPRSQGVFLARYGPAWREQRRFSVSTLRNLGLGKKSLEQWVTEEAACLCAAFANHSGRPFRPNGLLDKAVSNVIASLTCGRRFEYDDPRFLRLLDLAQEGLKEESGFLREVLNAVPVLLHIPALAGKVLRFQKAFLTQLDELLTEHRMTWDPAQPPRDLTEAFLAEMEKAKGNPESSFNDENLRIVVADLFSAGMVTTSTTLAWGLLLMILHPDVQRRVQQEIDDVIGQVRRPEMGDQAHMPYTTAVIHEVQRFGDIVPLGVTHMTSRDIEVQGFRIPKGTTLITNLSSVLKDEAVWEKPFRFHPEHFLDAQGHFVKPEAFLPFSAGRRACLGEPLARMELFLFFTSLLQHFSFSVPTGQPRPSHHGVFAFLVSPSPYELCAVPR

Compound: Nc1ccc(S(=O)(=O)Nc2ccnn2-c2ccccc2)cc1 [sulfaphenazole, reference compound]
- reduction of CYP2C9 activity [3]: 44.9%
- IC50 at 60 min ([3]; human): 6.1 µM

Compound: CCC(C)C(C(=O)NC(C(=O)N1CCCC1c1nc(C(=O)O)cs1)C(C)C)N(CC=C(C)C)CC=C(C)C (stereo not drawn) [AEG A]
- remaining CYP2D6 activity (reduced to) ([1]; 6 µM): 78.4%
- remaining CYP2D6 activity (reduced to) ([1]; 60 µM): 60.4%
- IC50 at 60 min [1, 11]: 8.6 µM
- IC50 ([2]; 60 min incubation): 5.7 µM
- effect on CYP3A4 activity [2]: active against CYP3A4, but only at the two highest concentrations
- IC50 [9]: 5.2 µM
- reduction of CYP2C9 activity [3]: 28.7%
- inhibition of T47D viability [4]: no effects were observed
- effect on Huh7 cell viability [5]: did not affect either of the two cancer cell lines
- IC50 [10]: 2.9 µM
- concentration remaining, % of initial value ([7]; active S9 fraction, 15 min, 3 µM): 2.9%
- concentration remaining, % of initial value [7, 12]: 0.4%
- concentration remaining, % of initial value ([7]; heat-denatured S9 fraction, 15 min): 56.0%
- concentration remaining, % of initial value ([7]; heat-denatured S9 fraction, 60 min): 46.0%
- half-life at 3 µM ([7]; human, liver S9 fraction (active), pH 7.4, active S9 fraction with NADPH, UDPGA, GSH, read-out: elimination half-life t1/2): 2.48 min

Compound: CCOc1ccc2ccc(=O)oc2c1 [7-EC, 7-etoxycoumarin, reference compound]
- elimination half-life t1/2 ([7]; active S9 fraction with NADPH, UDPGA, GSH): 38.7 min
- concentration remaining, % of initial value [7, 12]: 28.6%
- change of concentration in heat-denatured S9 fraction [7]: no changes were observed

Compound: C=C[C@H]1C[N@@]2CC[C@H]1C[C@@H]2[C@@H](O)c1ccnc2ccc(OC)cc12 [Quinidine, reference compound]
- inhibition at 60 min, 60 µM ([1]; human): 96.2%

Now from value to compound, other results behind:

- effect on CYP2D6 activity ([1]; up to 60 µM): did not induce any effects
- effect on CYP3A4 activity [2]: No significant loss of CYP3A4 activity
- reduction of CYP2C9 activity [3]: 43.9%
Compound: C=CC(C)(C)NC(Cc1ccc(O)cc1)C(=O)NC(C(=O)N1CCCC1C(=O)N1CCCC1c1nc(C(=O)O)cs1)C(C)C (stereo not drawn) [AEG625]
- inhibition of T47D viability [4]: 48%
- effect on Huh7 cell viability [5]: no apparent effect
- mean luciferase expression (relative luminescence), cell viability ([5]; 50 µM): 0.73 (SD = 0.47)
- mean luciferase expression (relative luminescence), cell viability ([5]; 100 µM): 0.70 (SD = 0.27)
- change of ROS levels in Huh7 cells [6]: twofold
- change of concentration in active S9 fraction ([7]; active S9 fraction): neither changes in the active nor in the deactivated fraction were detected
- change of concentration in heat-denatured S9 fraction [7]: neither changes in the active nor in the deactivated fraction were detected
- luciferase signal intensity (MIR92b-3p reporter) [8]: slight increase in signal intensity

- inhibition at 60 min, 60 µM [1, 11]: 33.2%
- CYP3A4 activity lower than in the control ([2]; 60 µM): approx. 18%
- reduction of CYP2C9 activity [3]: 40.7%
Compound: C=CC(C)(C)NC(Cc1ccccc1)C(=O)NC(Cc1ccccc1)C(=O)N1CCCC1C(=O)N1CCCC1c1nc(C(=O)O)cs1 (stereo not drawn) [AEG657]
- inhibition of T47D viability [4]: 63%
- effect on Huh7 cell viability [5]: lack of significant effects
- change of concentration in active S9 fraction ([7]; active S9 fraction): neither changes in the active nor in the deactivated fraction were detected
- change of concentration in heat-denatured S9 fraction [7]: neither changes in the active nor in the deactivated fraction were detected
